In US11866450B2, “Modulators of Cystic Fibrosis Transmembrane Conductance regulator, pharmaceutical compositions, methods of treatment, and process for making the modulators” (priority 2018, dated 2024):

Biological target: CFTR-mediated chloride transport (Homo sapiens, UniProt P13569)
Format: cell-based
Conditions: enteroid cells incubated with test compound 18-24 hours, acute 10 μM forskolin and 300 nM Compound III; for Max. Activity: % of chloride transport with 3 μM Compound A, 3 μM Compound II and 300 nM acute Compound III triple combination control
How it was run: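 Membrane-potential fluorescence AUC over 15 min quantified CFTR chloride transport after acute forskolin (10 μM), IBMX (100 μM) and Compound III (300 nM) in chloride-free buffer. Human enteroid cells were pretreated with compound for 18–24 h; % Activity is relative to 3 μM Compound A + 3 μM Compound II + 300 nM Compound III.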

CFTR-mediated chloride transport, sequence (P13569 whole entry, looked up): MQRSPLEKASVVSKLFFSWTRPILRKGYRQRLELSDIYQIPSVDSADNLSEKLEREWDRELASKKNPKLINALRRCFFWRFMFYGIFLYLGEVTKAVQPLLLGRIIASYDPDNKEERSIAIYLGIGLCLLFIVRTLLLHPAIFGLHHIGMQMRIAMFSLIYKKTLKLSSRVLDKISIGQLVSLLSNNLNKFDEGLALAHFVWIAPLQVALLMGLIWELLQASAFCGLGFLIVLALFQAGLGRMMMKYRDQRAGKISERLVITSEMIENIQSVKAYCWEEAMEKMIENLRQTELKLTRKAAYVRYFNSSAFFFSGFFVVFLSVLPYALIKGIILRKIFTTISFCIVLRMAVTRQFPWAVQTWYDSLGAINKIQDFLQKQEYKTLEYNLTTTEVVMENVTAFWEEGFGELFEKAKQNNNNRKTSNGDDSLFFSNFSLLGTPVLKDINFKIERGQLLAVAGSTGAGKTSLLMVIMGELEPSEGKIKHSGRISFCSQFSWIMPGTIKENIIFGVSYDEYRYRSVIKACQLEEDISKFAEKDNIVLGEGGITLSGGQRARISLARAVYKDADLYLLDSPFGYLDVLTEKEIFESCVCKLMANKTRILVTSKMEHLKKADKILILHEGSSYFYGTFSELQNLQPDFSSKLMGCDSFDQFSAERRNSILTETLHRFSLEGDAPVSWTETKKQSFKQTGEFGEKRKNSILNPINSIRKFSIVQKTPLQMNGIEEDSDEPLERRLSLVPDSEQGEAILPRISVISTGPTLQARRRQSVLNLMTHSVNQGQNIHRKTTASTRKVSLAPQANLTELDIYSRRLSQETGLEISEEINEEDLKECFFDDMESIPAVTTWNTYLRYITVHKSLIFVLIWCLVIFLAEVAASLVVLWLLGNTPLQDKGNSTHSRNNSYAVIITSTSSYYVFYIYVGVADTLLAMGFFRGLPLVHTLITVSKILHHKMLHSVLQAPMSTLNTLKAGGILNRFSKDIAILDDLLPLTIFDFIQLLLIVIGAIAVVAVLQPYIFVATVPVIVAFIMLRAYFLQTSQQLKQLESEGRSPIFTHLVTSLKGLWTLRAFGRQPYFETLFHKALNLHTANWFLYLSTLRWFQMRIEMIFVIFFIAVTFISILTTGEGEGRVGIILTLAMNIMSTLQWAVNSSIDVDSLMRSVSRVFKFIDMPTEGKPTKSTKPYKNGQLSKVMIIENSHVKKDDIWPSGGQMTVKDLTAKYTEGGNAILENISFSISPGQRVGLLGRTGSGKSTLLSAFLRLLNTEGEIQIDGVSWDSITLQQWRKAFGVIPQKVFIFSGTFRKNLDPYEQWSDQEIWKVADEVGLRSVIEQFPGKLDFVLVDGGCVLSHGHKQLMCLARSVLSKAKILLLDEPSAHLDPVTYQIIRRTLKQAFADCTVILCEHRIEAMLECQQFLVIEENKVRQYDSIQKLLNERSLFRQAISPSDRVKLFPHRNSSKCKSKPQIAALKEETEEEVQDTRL

Compound | EC50 [nM] | Max. Activity
CC(C)(C)CC[C@H]1CCN(c2ccc3c(n2)N2C[C@@H](CCCNc4cccc(n4)S(=O)(=O)NC3=O)CC2(C)C)C1=O (single isomer, unassigned) [Compound 127] | < 1000 | +++ (+++ is >60%)
CC(C)C(COc1ccn(-c2ccc3c(n2)N2C[C@@H](CC2(C)C)OCCNc2cccc(n2)S(=O)(=O)NC3=O)n1)C(C)C (single isomer, unassigned) [Compound 249, 12,12-dimethyl-8-{3-[3-methyl-2-(propan-2-yl)butoxy]-1H-pyrazol-1-yl}-15-oxa-2λ^6-thia-3,9,11,18,23-pentaazatetracyclo[17.3.1.111,14.05,10]tetracosa-1(23),5(10),6,8,19,21-hexaene-2,2,4-trione] | < 1000 | +++ (+++ is >60%)
CC1(C)C[C@@H]2CCCNc3ccc(O)c(n3)S(=O)(=O)NC(=O)c3ccc(-n4ccc(OCCCC5(C(F)(F)F)CC5)n4)nc3N1C2 [Compound 261, (14S)-22-hydroxy-12,12-dimethyl-8-(3-{3-[1-(trifluoromethyl)cyclopropyl]propoxy}-1H-pyrazol-1-yl)-2λ^6-thia-3,9,11,18,23-pentaazatetracyclo[17.3.1.111,14.05,10]tetracosa-1(22),5,7,9,19(23),20-hexaene-2,2,4-trione] | < 1000 | ++ (++ is 30-60%)
CC1(C)C[C@H]2CCNc3cccc(n3)S(=O)(=O)NC(=O)c3ccc(-n4ccc(OCCC(C5CC5)C5CC5)n4)nc3N1C2 (single isomer, unassigned) [Compound 251, 11-[3-(3,3-dicyclopropylpropoxy)-1H-pyrazol-1-yl]-7,7-dimethyl-17λ^6-thia-2,8,10,16,22-pentaazatetracyclo[16.3.1.15,8.09,14]tricosa-1(22),9,11,13,18,20-hexaene-15,17,17-trione] | < 1000 | ++ (++ is 30-60%)
CC1(C)C[C@H]2CCCNc3cccc(n3)S(=O)(=O)NC(=O)c3ccc(-n4ccc(OCCC5(C(F)(F)F)CC5)n4)nc3N1C2 [Compound 13, (14R)-12,12-dimethyl-8-(3-{2-[1-(trifluoromethyl)cyclopropyl]ethoxy}-1H-pyrazol-1-yl)-2λ^6-thia-3,9,11,18,23-pentaazatetracyclo[17.3.1.111,14.05,10]tetracosa-1(23),5,7,9,19,21-hexaene-2,2,4-trione] | 1000 to 3000 | + (+ is <30%)
CC1(C)CC2CCCNc3cccc(n3)S(=O)(=O)NC(=O)c3ccc(-n4ccc(OCC5C(C)(C)C5(C)C)n4)nc3N1C2 (stereo not shown) [Compound 42, 12,12-dimethyl-8-{3-[(2,2,3,3-tetramethylcyclopropyl)methoxy]-1H-pyrazol-1-yl}-2λ^6-thia-3,9,11,18,23-pentaazatetracyclo[17.3.1.111,14.05,10]tetracosa-1(22),5,7,9,19(23),20-hexaene-2,2,4-trione] | < 1000 | +++ (+++ is >60%)
CC1(C)C[C@H]2C[C@@H](F)CNc3cccc(n3)S(=O)(=O)NC(=O)c3ccc(-n4ccc(OCCC5C6(CC6)C56CC6)n4)nc3N1C2 (single isomer, unassigned) [Compound 307, 8-[3-(2-{dispiro[2.0.2.1]heptan-7-yl}ethoxy)-1H-pyrazol-1-yl]-16-fluoro-12,12-dimethyl-2λ^6-thia-3,9,11,18,23-pentaazatetracyclo[17.3.1.111,14.05,10]tetracosa-1(22),5,7,9,19(23),20-hexaene-2,2,4-trione] | > 3000 | + (+ is <30%)
Cc1c2cnn1CCC[C@@H]1CN(c3nc(-n4ccc(OCCC5(C(F)(F)F)CC5)n4)ccc3C(=O)NS2(=O)=O)C(C)(C)C1 (single isomer, unassigned) [Compound 113] | 1000 to 3000 | ++ (++ is 30-60%)
